Test results published in PMC6101970 (Oncogene, 2018).

Target: ATR/ATRIP (human) (Homo sapiens, UniProt Q13535)
Test: HTRF kinase assay, GST-cMyc-p53 Ser15 phosphorylation
Assay type: biochemical

Chain of ATR/ATRIP (human) (Q13535 whole entry): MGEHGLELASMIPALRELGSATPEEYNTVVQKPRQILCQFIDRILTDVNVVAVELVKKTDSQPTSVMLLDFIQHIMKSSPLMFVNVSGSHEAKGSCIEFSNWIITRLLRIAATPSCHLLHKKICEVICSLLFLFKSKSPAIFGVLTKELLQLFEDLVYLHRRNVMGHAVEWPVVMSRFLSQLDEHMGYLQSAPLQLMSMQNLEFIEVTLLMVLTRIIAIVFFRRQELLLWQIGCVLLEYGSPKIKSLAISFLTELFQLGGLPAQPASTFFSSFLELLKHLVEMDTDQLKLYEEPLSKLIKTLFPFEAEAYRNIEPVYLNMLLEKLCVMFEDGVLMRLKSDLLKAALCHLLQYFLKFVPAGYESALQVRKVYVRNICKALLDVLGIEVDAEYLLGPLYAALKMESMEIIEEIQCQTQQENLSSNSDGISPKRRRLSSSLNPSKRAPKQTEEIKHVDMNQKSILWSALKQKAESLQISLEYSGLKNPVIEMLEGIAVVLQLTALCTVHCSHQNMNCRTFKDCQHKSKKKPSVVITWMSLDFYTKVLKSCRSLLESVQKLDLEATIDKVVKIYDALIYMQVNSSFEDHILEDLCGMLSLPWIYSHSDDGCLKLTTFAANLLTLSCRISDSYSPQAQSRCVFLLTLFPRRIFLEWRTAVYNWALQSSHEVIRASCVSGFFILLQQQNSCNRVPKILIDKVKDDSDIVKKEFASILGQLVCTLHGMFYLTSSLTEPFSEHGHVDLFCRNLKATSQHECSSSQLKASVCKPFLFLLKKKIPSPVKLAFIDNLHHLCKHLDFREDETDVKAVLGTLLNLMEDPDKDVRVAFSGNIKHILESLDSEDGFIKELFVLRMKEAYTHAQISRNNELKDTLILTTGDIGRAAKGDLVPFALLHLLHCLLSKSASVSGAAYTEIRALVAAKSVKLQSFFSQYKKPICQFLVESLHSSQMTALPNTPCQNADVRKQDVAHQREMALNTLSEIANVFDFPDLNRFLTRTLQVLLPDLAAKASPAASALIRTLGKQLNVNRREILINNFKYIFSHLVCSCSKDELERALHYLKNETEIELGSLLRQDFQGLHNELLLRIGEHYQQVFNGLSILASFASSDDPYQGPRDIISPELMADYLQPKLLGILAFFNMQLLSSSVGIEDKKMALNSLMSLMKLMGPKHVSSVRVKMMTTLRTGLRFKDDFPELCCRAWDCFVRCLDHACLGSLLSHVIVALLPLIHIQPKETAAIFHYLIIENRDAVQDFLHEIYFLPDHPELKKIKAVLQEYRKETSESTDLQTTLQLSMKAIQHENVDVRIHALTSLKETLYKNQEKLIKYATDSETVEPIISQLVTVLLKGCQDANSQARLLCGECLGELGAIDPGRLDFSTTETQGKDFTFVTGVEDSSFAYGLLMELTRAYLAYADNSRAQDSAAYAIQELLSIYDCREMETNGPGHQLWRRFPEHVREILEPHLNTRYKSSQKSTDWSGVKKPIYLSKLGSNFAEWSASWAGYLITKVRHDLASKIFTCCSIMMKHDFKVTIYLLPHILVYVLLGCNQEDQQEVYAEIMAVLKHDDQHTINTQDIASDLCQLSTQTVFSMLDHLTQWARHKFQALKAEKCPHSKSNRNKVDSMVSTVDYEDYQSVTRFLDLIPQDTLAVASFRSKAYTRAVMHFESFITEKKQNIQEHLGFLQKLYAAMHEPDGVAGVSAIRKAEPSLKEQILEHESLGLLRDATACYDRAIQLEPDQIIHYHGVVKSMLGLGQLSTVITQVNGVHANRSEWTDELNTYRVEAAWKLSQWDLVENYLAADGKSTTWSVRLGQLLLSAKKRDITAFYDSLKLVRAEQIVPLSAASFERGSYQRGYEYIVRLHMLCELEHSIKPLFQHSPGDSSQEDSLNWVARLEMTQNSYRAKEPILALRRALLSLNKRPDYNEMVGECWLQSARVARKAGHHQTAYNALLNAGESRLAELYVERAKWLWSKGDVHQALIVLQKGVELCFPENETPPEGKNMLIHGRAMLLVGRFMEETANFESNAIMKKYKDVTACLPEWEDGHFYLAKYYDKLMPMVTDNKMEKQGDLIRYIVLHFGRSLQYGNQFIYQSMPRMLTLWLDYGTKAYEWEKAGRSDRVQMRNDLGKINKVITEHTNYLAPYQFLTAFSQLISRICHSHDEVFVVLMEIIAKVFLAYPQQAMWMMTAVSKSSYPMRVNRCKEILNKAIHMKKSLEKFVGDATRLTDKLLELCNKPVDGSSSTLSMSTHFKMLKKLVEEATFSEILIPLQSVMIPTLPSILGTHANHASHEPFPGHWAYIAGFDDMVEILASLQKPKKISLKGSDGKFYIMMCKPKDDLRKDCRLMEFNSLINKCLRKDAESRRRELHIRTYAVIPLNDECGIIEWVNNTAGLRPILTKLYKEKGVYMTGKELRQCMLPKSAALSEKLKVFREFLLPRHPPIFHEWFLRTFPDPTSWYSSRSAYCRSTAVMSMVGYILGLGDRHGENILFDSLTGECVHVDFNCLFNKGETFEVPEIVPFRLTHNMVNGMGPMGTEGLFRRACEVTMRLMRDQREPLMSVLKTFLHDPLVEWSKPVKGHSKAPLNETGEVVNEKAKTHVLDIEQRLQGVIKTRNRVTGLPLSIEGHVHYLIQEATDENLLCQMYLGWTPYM
Chain of ATR/ATRIP (human) (Q8WXE1 whole entry partner): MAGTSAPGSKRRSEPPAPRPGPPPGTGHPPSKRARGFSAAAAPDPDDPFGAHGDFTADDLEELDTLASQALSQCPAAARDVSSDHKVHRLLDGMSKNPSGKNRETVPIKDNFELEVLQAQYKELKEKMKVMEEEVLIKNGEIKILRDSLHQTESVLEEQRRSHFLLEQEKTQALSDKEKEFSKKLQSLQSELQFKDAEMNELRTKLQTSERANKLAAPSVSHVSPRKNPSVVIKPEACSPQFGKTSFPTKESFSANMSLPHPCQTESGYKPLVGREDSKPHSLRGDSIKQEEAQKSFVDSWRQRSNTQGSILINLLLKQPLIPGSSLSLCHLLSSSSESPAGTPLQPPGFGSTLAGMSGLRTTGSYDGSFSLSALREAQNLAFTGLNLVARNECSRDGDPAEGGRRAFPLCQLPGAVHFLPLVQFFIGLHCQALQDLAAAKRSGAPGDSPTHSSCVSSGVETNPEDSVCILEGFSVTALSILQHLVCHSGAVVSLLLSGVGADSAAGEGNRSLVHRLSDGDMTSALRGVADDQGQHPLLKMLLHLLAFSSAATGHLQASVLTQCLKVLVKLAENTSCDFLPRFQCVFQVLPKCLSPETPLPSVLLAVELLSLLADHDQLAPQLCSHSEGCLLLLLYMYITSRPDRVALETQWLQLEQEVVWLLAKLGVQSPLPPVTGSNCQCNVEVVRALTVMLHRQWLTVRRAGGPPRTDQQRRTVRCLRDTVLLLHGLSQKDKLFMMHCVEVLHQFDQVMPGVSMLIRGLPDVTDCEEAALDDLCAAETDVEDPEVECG

| SMILES | IC50 |
| --- | --- |
| COc1nnc2ccc(N3CCC(c4ccc(OCCN5CCN(C)C(=O)[C@H]5C)cc4)CC3)nn12 [AZD5153] | > 10 µM |
| Cc1sc2c(c1C)C(c1ccc(Cl)cc1)=N[C@@H](CC(=O)OC(C)(C)C)c1nnc(C)n1-2 [JQ1] | > 10 µM |
